Measured values published in the kinase profiling compilation of Christmann-Franck et al. (2016).
“And” between values parts separate entries of the source, which are not always exact repeats. Equal entries are not always repeated.

Columns and labels:
Assay in all cases: radiometric filter-binding kinase assay, Kinase HotSpot
Details in all cases: compound 0.5 µM; ATP 10 µM
[1] = target: ACVR1B (human) (UniProt P36896)
[2] = target: AKT3 (human) (UniProt Q9Y243)
[3] = target: BMX (human) (UniProt P51813)
[4] = target: CAMKK2 (human) (UniProt Q96RR4)
[5] = target: CDK1 CCNA2 (human) (UniProt P06493+P20248)
[6] = target: CDK6 CCND3 (human) (UniProt P30281+Q00534)
Chain of CDK6 CCND3 (human) (P30281 whole entry, looked up): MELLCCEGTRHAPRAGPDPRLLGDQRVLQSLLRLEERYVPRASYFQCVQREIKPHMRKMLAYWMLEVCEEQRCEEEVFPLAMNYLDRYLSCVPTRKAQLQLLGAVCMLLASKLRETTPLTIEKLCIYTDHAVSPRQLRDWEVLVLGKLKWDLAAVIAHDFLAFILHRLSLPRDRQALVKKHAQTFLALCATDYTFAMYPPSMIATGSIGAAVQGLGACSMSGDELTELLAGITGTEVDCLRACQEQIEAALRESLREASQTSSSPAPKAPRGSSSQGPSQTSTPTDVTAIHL
Chain of CDK6 CCND3 (human) (Q00534 whole entry, looked up): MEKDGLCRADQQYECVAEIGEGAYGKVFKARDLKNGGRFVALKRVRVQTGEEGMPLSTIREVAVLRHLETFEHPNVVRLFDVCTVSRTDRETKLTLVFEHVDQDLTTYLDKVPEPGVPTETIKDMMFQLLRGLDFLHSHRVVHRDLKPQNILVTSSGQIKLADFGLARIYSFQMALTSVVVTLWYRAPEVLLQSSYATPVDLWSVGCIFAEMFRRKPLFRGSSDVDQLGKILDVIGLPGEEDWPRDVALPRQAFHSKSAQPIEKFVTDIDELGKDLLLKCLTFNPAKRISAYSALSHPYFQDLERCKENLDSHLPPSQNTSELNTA

[7] = target: CSK (human) (UniProt P41240)
[8] = target: CSNK1A1 (human) (UniProt P48729)
[9] = target: CSNK1G1 (human) (UniProt Q9HCP0)
[10] = target: ERBB2 (human) (UniProt P04626)
[11] = target: ERBB4 (human) (UniProt Q15303)
[12] = target: FGFR2 (human) (UniProt P21802)
Chain of FGFR2 (human) (P21802 whole entry, looked up): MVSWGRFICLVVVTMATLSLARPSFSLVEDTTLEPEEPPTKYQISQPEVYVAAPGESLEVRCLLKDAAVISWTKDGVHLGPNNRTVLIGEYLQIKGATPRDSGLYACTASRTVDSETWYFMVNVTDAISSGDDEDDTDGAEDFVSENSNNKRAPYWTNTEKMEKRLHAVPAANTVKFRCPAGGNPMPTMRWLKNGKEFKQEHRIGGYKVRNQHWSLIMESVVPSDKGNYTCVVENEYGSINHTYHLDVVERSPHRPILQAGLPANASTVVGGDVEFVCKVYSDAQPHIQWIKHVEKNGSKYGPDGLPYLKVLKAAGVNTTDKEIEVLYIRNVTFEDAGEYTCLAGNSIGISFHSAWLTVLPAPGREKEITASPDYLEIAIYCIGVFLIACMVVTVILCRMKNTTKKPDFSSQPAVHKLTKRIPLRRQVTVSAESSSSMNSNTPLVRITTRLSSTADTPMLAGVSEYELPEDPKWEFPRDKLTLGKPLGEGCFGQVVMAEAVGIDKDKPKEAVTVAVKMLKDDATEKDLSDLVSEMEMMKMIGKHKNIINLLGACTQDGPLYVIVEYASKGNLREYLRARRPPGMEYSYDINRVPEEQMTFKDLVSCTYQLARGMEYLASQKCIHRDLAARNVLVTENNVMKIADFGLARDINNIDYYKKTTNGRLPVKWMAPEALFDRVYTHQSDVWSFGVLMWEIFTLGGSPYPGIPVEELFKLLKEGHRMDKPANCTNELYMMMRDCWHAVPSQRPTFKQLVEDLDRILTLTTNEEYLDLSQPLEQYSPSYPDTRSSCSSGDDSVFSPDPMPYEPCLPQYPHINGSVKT

[13] = target: FGFR3 (human) (UniProt P22607)
[14] = target: FGFR4 (human) (UniProt P22455)
[15] = target: JAK1 JH1 catalytic (human) (UniProt P23458)
[16] = target: LIMK1 (human) (UniProt P53667)
[17] = target: MAP2K1 (human) (UniProt Q02750)
Chain of MAP2K1 (human) (Q02750 whole entry, looked up): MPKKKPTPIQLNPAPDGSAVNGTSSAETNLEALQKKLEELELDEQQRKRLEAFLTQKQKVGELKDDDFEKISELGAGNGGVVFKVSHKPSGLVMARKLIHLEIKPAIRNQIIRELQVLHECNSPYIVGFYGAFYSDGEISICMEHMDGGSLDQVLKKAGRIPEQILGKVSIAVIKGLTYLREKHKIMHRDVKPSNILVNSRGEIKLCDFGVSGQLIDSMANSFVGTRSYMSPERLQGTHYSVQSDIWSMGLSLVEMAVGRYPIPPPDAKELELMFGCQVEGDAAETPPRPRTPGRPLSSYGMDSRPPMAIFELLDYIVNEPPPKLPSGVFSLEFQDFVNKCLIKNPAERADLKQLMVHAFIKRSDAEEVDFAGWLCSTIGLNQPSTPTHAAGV

[18] = target: MAP3K9 (human) (UniProt P80192)
[19] = target: MAPK11 (human) (UniProt Q15759)
[20] = target: MAPK12 (human) (UniProt P53778)
[21] = target: MAPK8 (human) (UniProt P45983)
Chain of MAPK8 (human) (P45983 whole entry, looked up): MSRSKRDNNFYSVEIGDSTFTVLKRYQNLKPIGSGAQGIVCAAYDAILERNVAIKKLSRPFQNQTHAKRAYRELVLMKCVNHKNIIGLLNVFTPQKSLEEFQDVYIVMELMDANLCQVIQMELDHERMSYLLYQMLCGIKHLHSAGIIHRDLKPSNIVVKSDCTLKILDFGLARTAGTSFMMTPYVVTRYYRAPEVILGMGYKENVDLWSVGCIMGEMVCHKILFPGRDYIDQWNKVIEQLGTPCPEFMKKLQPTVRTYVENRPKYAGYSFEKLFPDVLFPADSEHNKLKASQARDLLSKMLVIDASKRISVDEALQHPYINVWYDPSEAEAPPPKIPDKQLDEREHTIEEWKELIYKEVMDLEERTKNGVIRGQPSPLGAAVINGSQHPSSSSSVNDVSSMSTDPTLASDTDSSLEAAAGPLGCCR

[22] = target: MARK4 (human) (UniProt Q96L34)
[23] = target: MATK (human) (UniProt P42679)
[24] = target: MYLK (human) (UniProt Q15746)
[25] = target: PAK2 (human) (UniProt Q13177)
[26] = target: PIM1 (human) (UniProt P11309)
[27] = target: PLK3 (human) (UniProt Q9H4B4)
[28] = target: PRKD2 (human) (UniProt Q9BZL6)
[29] = target: PRKG1 (human) (UniProt Q13976)
Chain of PRKG1 (human) (Q13976 whole entry, looked up): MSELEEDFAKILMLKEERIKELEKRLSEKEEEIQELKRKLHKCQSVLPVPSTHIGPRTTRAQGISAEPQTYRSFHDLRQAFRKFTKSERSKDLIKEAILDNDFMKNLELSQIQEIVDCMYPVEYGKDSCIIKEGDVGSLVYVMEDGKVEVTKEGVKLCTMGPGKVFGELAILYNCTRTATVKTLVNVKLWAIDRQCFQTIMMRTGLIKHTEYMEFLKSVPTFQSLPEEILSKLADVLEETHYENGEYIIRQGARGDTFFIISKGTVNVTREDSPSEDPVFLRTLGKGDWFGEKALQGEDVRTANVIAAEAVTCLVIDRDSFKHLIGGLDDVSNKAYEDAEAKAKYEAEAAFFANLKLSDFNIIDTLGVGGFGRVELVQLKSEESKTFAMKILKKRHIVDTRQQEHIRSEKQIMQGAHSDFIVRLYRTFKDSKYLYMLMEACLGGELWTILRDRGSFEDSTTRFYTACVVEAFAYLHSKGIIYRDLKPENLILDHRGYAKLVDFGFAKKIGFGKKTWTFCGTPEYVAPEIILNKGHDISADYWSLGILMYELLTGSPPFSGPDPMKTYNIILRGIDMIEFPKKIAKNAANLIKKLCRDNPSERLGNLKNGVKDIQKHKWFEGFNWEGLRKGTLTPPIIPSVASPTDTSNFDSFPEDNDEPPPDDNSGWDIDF

[30] = target: PRKG2 (human) (UniProt Q13237)
[31] = target: PTK2B (human) (UniProt Q14289)
[32] = target: RIPK2 (human) (UniProt O43353)
[33] = target: RPS6KA3 KD1 KD2 (human) (UniProt P51812)
[34] = target: RPS6KA5 KD2 (human) (UniProt O75582)
[35] = target: SGK3 (human) (UniProt Q96BR1)
[36] = target: SRC (human) (UniProt P12931)
[37] = target: SRMS (human) (UniProt Q9H3Y6)
[38] = target: SRPK1 (human) (UniProt Q96SB4)
[39] = target: STK3 (human) (UniProt Q13188)
Chain of STK3 (human) (Q13188 whole entry, looked up): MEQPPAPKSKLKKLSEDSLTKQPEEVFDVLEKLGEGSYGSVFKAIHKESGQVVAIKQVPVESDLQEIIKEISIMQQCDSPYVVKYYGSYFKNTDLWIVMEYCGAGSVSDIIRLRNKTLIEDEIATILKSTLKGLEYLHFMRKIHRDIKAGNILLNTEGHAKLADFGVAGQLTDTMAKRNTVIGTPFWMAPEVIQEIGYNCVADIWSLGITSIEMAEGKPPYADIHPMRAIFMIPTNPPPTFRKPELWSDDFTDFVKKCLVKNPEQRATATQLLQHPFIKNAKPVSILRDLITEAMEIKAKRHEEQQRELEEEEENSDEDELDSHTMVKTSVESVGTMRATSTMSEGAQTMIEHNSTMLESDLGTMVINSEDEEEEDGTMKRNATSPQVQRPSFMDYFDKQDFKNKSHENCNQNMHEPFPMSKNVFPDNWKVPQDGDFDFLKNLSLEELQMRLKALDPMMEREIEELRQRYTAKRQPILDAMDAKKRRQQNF

[40] = target: TAOK3 (human) (UniProt Q9H2K8)
Chain of TAOK3 (human) (Q9H2K8 whole entry, looked up): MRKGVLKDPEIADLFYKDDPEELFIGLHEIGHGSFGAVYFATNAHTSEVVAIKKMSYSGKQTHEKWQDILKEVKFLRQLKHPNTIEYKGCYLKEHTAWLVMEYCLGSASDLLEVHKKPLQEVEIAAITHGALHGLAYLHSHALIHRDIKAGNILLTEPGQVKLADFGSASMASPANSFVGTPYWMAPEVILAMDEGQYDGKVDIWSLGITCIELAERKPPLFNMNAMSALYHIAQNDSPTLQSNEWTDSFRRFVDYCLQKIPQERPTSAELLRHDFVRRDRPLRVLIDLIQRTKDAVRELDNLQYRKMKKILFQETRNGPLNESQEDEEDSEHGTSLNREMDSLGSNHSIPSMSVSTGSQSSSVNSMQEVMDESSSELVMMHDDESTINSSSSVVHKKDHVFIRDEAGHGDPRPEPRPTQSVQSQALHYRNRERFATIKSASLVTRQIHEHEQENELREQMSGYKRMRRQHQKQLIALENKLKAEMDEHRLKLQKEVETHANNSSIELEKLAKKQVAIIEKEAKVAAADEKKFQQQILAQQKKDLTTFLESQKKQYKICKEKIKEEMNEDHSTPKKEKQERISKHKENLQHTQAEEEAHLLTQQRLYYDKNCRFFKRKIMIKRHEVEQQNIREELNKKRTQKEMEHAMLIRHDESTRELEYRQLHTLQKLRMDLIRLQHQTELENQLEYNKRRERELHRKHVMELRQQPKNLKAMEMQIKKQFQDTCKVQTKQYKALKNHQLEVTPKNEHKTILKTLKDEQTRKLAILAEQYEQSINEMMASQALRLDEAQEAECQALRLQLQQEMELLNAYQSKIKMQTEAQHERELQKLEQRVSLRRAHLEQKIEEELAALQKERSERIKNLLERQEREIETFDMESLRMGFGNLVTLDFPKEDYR

[41] = target: TGFBR1 (human) (UniProt P36897)
Chain of TGFBR1 (human) (P36897 whole entry, looked up): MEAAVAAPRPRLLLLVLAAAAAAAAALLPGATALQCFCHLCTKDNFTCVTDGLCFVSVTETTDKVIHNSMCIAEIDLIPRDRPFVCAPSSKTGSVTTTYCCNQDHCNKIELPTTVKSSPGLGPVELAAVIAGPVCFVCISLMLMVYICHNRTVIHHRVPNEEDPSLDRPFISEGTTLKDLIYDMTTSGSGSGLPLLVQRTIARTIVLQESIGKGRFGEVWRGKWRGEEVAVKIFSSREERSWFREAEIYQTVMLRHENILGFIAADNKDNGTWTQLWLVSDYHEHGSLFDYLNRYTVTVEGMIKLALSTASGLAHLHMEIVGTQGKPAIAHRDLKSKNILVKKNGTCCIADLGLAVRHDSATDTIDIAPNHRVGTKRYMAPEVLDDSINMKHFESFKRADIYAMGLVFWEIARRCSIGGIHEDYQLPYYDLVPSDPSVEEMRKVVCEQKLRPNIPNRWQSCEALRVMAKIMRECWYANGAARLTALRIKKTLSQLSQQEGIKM

[42] = target: TNK2 (human) (UniProt Q07912)

COc1cc2ncc(-c3ccccc3)nc2cc1OC
residual activity [1]: 95.2% | residual activity [2]: 94.5% | residual activity [3]: 92.2% | residual activity [4]: 114% | residual activity [5]: 94.8% | residual activity [6]: 93.7% | residual activity [7]: 107% | residual activity [8]: 100% | residual activity [9]: 90.1% | residual activity [10]: 116% | residual activity [11]: 65.9% | residual activity [12]: 103% | residual activity [13]: 96% | residual activity [14]: 78.7% | residual activity [15]: 91.5% | residual activity [16]: 77.7% | residual activity [17]: 97.6% | residual activity [18]: 85.4% | residual activity [19]: 95.7% | residual activity [20]: 95.5% | residual activity [21]: 102% | residual activity [22]: 85.3% | residual activity [23]: 101% | residual activity [24]: 97.4% | residual activity [25]: 85.6% | residual activity [26]: 95.9% | residual activity [27]: 98.3% | residual activity [28]: 93.8% | residual activity [29]: 77.1% and 96.2% | residual activity [30]: 83.6% | residual activity [31]: 85.9% | residual activity [32]: 90.3% | residual activity [33]: 101% | residual activity [34]: 91.8% | residual activity [35]: 89.7% | residual activity [36]: 96.1% | residual activity [37]: 102% | residual activity [38]: 105% | residual activity [39]: 95.7% | residual activity [40]: 88.9% | residual activity [41]: 101% | residual activity [42]: 93.2%
